Series [1] deals with wild-type human cardiac sodium channel, hNav1.5 (late INa) (Homo sapiens, UniProt Q14524). Briefly: Late INa screening assay (QPatch whole cell patch clamp). It is filed as cell-based. The settings on record: percent block of late INa, compound at 1 μM, 10 μM Tefluthrin, HEK293 hNav1.5; read-out: Late INa 1 μM. On the procedure: The late sodium current (Late INa) and peak sodium current (Peak INa) assays are performed on an automated electrophysiology platform, QPatch 16× (Sophion Bioscience, Copenhagen, Denmark), which uses the whole cell patch clamp technique to measure currents through the cell membrane of up to 16 cells at a time. The assay uses an HEK293 (human embryonic kidney) cell line heterologously expressing the wild-type human cardiac sodium channel, hNav1.5, purchased from Millipore (Billerica, Mass.). No beta subunits were coexpressed with the Na channel alpha subunit. Cells are maintained with standard tissue culture procedures and stable channel expression is maintained with 400 μg/mL Geneticin in the culture medium. […] Experiments are carried out at 23-25° C. For both the Late INa and Peak INa assays, series resistance compensation is set to 100% and series resistance and whole-cell compensation are performed automatically. Currents are digitized at 25 kHz and low-pass filtered at 12 kHz and 10 kHz for the late and peak INa assays, respectively. Currents through open sodium channels are automatically recorded and stored in the Sophion Bioscience Oracle database (Sophion Bioscience, Copehagen, Denmark). Analysis is performed using QPatch Assay and database software and data are compiled in Excel. Compound stocks are routinely made by the Gilead Sample Bank in plastic vials to 10 mM in dimethyl sulfoxide (DMSO). In some cases, when compounds are not soluble in DMSO, they are made in 100% ethanol. Stocks are sonicated as necessary. […] The intracellular solution used to perfuse the inside of the cells for both the Late INa and Peak INa assays contains: 120 mM CsF, 20 mM CsCl, 5 mM EGTA, 5 mM HEPES and pH adjusted to 7.4 with CsOH. Compounds are diluted in extracellular solution to 1 μM in glass vials and then transferred to glass well plates before robotic addition to the cells. […] For the Late INa assay, sodium channels are activated every 10 seconds (0.1 Hz) by depolarizing the cell membrane to −20 mV for 250 milliseconds (ms) from a holding potential of −120 mV. In response to a −20 mV voltage step, typical hNav1.5 sodium currents activate rapidly to a peak negative current and then inactivate nearly completely within 3-4 ms. All compounds were tested to determine their activity in blocking the late sodium current. Late INa was generated by adding 10 μM Tefluthrin (pyrethroid) to the extracellular solution while recording Na currents. To confirm the block of late INa observed using the automated screening method, a second late INa enhancer (ATX-II) and the manual patch clamp method were used. ATX-II and tefluthrin occupy distinct, non-overlapping binding sites and modify Na^+ channel function differently to increase late INa. […] For the purposes of the screening, late INa is defined as the mean current between 225 ms and 250 ms after stepping to −20 mV to activate Na channels. […] Results are reported as percent block of late INa.
Sequence of wild-type human cardiac sodium channel, hNav1.5 (late INa) (Q14524 whole entry): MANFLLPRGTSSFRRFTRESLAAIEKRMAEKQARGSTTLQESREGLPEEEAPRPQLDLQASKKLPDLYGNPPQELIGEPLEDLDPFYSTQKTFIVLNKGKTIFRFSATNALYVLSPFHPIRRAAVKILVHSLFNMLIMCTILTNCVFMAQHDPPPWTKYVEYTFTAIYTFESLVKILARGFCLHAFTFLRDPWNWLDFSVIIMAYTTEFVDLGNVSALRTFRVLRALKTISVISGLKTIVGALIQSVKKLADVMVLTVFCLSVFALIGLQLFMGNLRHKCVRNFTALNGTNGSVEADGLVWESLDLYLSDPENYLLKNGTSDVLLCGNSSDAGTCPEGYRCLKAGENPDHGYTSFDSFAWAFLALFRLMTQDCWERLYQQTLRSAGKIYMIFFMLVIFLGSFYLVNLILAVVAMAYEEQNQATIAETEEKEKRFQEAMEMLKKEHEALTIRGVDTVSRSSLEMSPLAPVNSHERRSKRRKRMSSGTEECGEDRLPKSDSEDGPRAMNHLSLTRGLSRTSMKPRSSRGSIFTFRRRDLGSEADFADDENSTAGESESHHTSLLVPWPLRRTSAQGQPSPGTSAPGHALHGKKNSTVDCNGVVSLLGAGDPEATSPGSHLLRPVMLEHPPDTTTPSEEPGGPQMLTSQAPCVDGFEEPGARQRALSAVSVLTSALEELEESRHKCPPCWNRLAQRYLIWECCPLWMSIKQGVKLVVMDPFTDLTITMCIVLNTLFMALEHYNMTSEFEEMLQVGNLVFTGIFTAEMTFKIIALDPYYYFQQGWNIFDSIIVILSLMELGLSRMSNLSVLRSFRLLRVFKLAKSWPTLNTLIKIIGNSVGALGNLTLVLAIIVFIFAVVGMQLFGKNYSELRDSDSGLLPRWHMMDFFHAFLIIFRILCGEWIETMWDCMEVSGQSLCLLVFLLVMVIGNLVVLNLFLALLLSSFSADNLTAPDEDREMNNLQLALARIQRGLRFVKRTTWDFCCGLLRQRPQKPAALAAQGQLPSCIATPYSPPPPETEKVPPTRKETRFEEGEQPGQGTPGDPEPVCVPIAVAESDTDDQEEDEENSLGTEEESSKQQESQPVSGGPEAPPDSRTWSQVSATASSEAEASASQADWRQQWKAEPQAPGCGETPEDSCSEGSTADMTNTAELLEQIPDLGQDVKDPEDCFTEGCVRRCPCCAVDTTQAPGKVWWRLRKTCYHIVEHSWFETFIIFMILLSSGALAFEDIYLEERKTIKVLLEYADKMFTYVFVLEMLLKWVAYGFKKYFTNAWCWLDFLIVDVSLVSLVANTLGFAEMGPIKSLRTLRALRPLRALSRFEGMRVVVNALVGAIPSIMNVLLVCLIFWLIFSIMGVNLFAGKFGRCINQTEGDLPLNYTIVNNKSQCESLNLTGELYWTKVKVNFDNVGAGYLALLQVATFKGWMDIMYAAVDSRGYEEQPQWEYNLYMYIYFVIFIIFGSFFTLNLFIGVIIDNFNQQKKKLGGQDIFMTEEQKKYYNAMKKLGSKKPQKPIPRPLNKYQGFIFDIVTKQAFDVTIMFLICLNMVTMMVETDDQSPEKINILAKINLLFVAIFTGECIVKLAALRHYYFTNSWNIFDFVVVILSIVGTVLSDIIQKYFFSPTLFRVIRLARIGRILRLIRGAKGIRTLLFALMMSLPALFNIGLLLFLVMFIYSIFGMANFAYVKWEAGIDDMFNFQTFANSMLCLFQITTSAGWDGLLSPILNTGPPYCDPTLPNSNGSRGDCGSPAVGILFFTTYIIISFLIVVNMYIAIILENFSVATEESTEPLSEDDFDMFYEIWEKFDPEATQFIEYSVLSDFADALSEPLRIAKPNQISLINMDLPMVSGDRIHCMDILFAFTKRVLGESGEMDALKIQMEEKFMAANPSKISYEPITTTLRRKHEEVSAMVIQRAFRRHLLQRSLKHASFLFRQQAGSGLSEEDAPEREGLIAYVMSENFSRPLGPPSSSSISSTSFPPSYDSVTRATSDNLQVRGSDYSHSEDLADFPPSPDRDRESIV
On the technique in general: Patch clamp records ionic current or voltage across a cell membrane.

Series [2] can be described thus: Microsomal stability assay, rat. Format: in vitro ADME. The settings on record: metabolic stability, rat liver microsomes 0.5 mg/mL, substrate 3 uM. On the procedure: (§1) The micorsomal stability assay is generally performed as follows. Format: 15 compounds (and 1 control verapamil) in 3 different species in duplicate sets Substrate: 3 uM Protein concentration: 0.5 mg/mL (for dog, rat, and human liver microsomes) Cofactor: 1×NADPH-Regenerating system Time-points: 2, 12, 25, 45, and 65 minutes [table] Sample preparation: 25 uL at each timepoint is added to plate with 225 uL quenching solution (50% MeOH, 25% ACN, 25% H2O, and 50 nM […]). After plates are vortexed, centrifuge for 30 minutes. Microsomal solutions: take 400 uL of 20 mg/mL microsomes and add to 13,680 uL 100 mM KPO4 buffer. Using an 8-channel, add 650 uL of this solution to the designated two columns on a short plate. The order should be dog microsomes in columns 1 and 2, rat microsomes in columns 3 and 4, and human microsomes in columns 5 and 6. Keep on ice before use. Place this plate in incubator 1 on the TECAN countertop.
A general note: Liver microsomes are vesicles of endoplasmic reticulum, rich in cytochrome P450 enzymes.

A short description of series [3]: Microsomal stability assay, dog. It is filed as in vitro ADME. The settings on record: metabolic stability, dog liver microsomes 0.5 mg/mL, substrate 3 uM. The protocol:
as §1

The nature of series [4]: Microsomal stability assay, human. Format: in vitro ADME. The following applies: metabolic stability, human liver microsomes 0.5 mg/mL, substrate 3 uM. The protocol:
as §1

The values below come from US20150329558A1, “FUSED HETEROCYCLIC COMPOUNDS AS ION CHANNEL MODULATORS” (Gilead Sciences, Inc., priority 2011, published 2015).

A value given as a limit tells only on which side of the number the result lay.

For `O=c1c2cc(-c3cnc(N4CCCCC4)nc3)ccc2nnn1CCOc1ncccn1` [Compound V-12, 6-(2-(piperidin-1-yl)pyrimidin-5-yl)-3-(2-(pyrimidin-2-yloxy)ethyl)benzo[d][1,2,3]triazin-4(3H)-one], the inhibition at 1 µM in series [1] came out at 26%. The MS Rat THalf in series [2] was found to be 11 min. The MS Dog THalf in series [3] came to 5 min. Further, in series [4], the MS Human THalf is 9 min.

As to `Cc1nc(Cn2nnc3ccc(-c4ccc(OC(F)(F)F)cc4)cc3c2=O)no1` [II-6, 3-((5-methyl-1,2,4-oxadiazol-3-yl)methyl)-6-(4-(trifluoromethoxy)phenyl)benzo[d][1,2,3]triazin-4(3H)-one], the inhibition at 1 µM in series [1] amounted to 43%. For the same molecule, in series [2], the MS Rat THalf is 144 min. The same molecule gave an MS Dog THalf in series [3] of 123 min. This molecule displayed an MS Human THalf in series [4] of 164 min.

For `Cc1noc(Cn2nnc3ccc(-c4ccc(Oc5ccccc5)cc4)cc3c2=O)n1` [II-7, 3-((3-methyl-1,2,4-oxadiazol-5-yl)methyl)-6-(4-phenoxyphenyl)benzo[d][1,2,3]triazin-4(3H)-one], the inhibition at 1 µM in series [1] came to 75%. This molecule also gave an MS Rat THalf in series [2] of 10 min. In series [3], this molecule returned an MS Dog THalf of 4 min. Also, in series [4], the MS Human THalf was determined as 10 min.

Consider `O=c1c2cc(-c3ccc(OC(F)(F)F)cc3)ccc2nnn1CCn1cccn1` [II-13, 3-(2-(1H-pyrazol-1-yl)ethyl)-6-(4-(trifluoromethoxy)phenyl)benzo[d][1,2,3]triazin-4(3H)-one], for which the inhibition at 1 µM in series [1] stood at 67%. The MS Rat THalf in series [2] worked out at 25 min. In series [3], this molecule came in with an MS Dog THalf of 36 min. In series [4], this molecule came in with an MS Human THalf of 149 min.

Take `O=c1c2cc(-c3ccc(OC(F)(F)F)cc3)ccc2nnn1CCc1ccccn1` [II-15, 3-(2-(pyridin-2-yl)ethyl)-6-(4-(trifluoromethoxy)phenyl)benzo[d][1,2,3]triazin-4(3H)-one]: in series [1], the inhibition at 1 µM is 71%. In series [2], this molecule registered an MS Rat THalf of 19 min. For the same molecule, the MS Dog THalf in series [3] was found to be 23 min. In series [4], this molecule gave an MS Human THalf of 33 min.

On to `Cc1noc(Cn2nnc3ccc(-c4ccc(Oc5ccc(Cl)cc5)cc4)cc3c2=O)n1` [II-16, 6-(4-(4-chlorophenoxyl)phenyl)-3-((3-methyl-1,2,4-oxadiazol-5-yl)methyl)benzo[d][1,2,3]triazin-4(3H)-one], for which, in series [1], the inhibition at 1 µM is 76%. This molecule also had an MS Rat THalf in series [2] of 102 min. Also, in series [3], the MS Dog THalf amounted to 31 min. The molecule further yielded an MS Human THalf in series [4] of 74 min.

Consider `O=C(Cn1nnc2ccc(-c3ccc(OC(F)(F)F)cc3)cc2c1=O)N1CCN(c2ncccn2)CC1` [II-41, 3-(2-oxo-2-(4-(pyrimidin-2-yl)piperazin-1-yl)ethyl)-6-(4-(trifluoromethoxy)phenyl)benzo[d][1,2,3]triazin-4(3H)-one], for which the inhibition at 1 µM in series [1] was determined as 25%. Also, the MS Rat THalf in series [2] is 16 min. In series [3], this molecule came in with an MS Dog THalf of 80 min. Moreover, in series [4], the MS Human THalf was found to be 28 min.

Turning to `N#CC1(c2ccc(-c3ccc4nnn(CCOc5ncccn5)c(=O)c4c3)cc2)CC1` [II-50, 1-(4-(4-oxo-3-(2-(pyrimidin-2-yloxy)ethyl)-3,4-dihydrobenzo[d][1,2,3]triazin-6-yl)phenyl)cyclopropanecarbonitrile], the inhibition at 1 µM in series [1] is 30%. The MS Rat THalf in series [2] was 49 min. The same molecule displayed an MS Dog THalf in series [3] of 159 min. Besides, the MS Human THalf in series [4] was determined as 165 min.

In the case of `N#Cc1cnc(OCCn2nnc3ccc(-c4ccc(OC(F)(F)F)cc4)cc3c2=O)nc1` [II-51, 2-(2-(4-oxo-6-(4-(trifluoromethoxy)phenyl)benzo[d][1,2,3]triazin-3(4H)-yl)ethoxy)pyrimidine-5-carbonitrile], in series [1], the inhibition at 1 µM stood at 35%. For the same molecule, the MS Rat THalf in series [2] stood at 197 min. In series [3], this molecule displayed an MS Dog THalf of 93 min. The same molecule displayed an MS Human THalf in series [4] greater than 395 min.

Molecule `COc1ncc(-c2cnn(CCn3ncc4ccc(-c5ccc(OC(F)(F)F)cc5)cc4c3=O)c2)cn1` [III-34, 2-(2-(4-(2-methoxypyrimidin-5-yl)-1H-pyrazol-1-yl)ethyl)-7-(4-(trifluoromethoxy)phenyl)phthalazin-1 (2H)-one] had an MS Rat THalf in series [2] of 41 min. The same molecule had an MS Dog THalf in series [3] of 46 min. The same molecule had an MS Human THalf in series [4] of 50 min.

As to `CC(C)(C)OC(=O)N1CCC[C@@H]1C(=O)N1CCc2ccc(-c3ccc(C(F)(F)F)cc3)cc2C1` [IX-114, (R)-tert-butyl 2-(7-(4-(trifluoromethyl)phenyl)-1,2,3,4-tetrahydroisoquinoline-2-carbonyl)pyrrolidine-1-carboxylate], the inhibition at 1 µM in series [1] amounted to 20%.

On to `O=C(c1cnnn1-c1ccccc1)N1CCc2ccc(-c3ccc(C(F)(F)F)cc3)cc2C1` [IX-116, (1-phenyl-1H-1,2,3-triazol-5-yl)(7-(4-(trifluoromethyl)phenyl)-3,4-dihydroisoquinolin-2(1H)-yl)methanone], for which, in series [1], the inhibition at 1 µM came to 29%.

`CCOC(=O)Cn1cc(C(=O)N2CCc3ccc(-c4ccc(C(F)(F)F)cc4)cc3C2)nn1` [IX-119, ethyl 2-(4-(7-(4-(trifluoromethyl)phenyl)-1,2,3,4-tetrahydroisoquinoline-2-carbonyl)-1H-1,2,3-triazol-1-yl)acetate]: the inhibition at 1 µM in series [1] was 15%.

For `O=C(N1CCCC1)N1CCc2ccc(-c3ccc(OC(F)(F)F)cc3)cc2C1` [IX-122, pyrrolidin-1-yl(7-(4-(trifluoromethoxy)phenyl)-3,4-dihydroisoquinolin-2(1H)-yl)methanone], the inhibition at 1 µM in series [1] was 36%.

Consider `O=C(NCc1ncccn1)N1CCc2ccc(-c3ccc(OC(F)(F)F)cc3)cc2C1` [IX-123, N-(pyrimidin-2-ylmethyl)-7-(4-(trifluoromethoxy)phenyl)-3,4-dihydroisoquinoline-2(1H)-carboxamide], for which the inhibition at 1 µM in series [1] is 17%.

Take `CC1(C)Oc2ccc(-c3ccc(OC(F)(F)F)cc3)cc2C(=O)N1Cc1ccccn1` [VIII-13, 2,2-dimethyl-3-(pyridin-2-ylmethyl)-6-(4-(trifluoromethoxy)phenyl)-2H-benzo[e][1,3]oxazin-4(3H)-one]: the inhibition at 1 µM in series [1] was 20%.

For `O=C1c2cc(-c3ccc(C(F)(F)F)cc3F)ccc2OCN1Cc1ncccn1` [VIII-18, 6-(2-fluoro-4-(trifluoromethyl)phenyl)-3-(pyrimidin-2-ylmethyl)-2H-benzo[e][1,3]oxazin-4(3H)-one], the inhibition at 1 µM in series [1] is 54%.

For `O=C1c2cc(-c3ccc(C(F)(F)F)cc3)ccc2OCN1Cc1ncccn1` [VIII-19, 3-(pyrimidin-2-ylmethyl)-6-(4-(trifluoromethyl)phenyl)-2H-benzo[e][1,3]oxazin-4(3H)-one], the inhibition at 1 µM in series [1] stood at 61%.

`O=C1c2cc(-c3ccc(C(F)(F)F)cc3)ccc2OCN1Cc1ccccc1` [VIII-21, 3-benzyl-6-(4-(trifluoromethyl)phenyl)-2H-benzo[e][1,3]oxazin-4(3H)-one]: the inhibition at 1 µM in series [1] was 58%.

As to `O=C1c2cc(-c3ccc(C(F)(F)F)cc3F)ccc2OCN1Cc1ccccc1` [VIII-22, 3-benzyl-6-(2-fluoro-4-(trifluoromethyl)phenyl)-2H-benzo[e][1,3]oxazin-4(3H)-one], the inhibition at 1 µM in series [1] was found to be 45%.

As to `O=C1c2cc(-c3ccc(OC(F)(F)F)cc3)ccc2OCN1Cc1ccccc1` [VIII-23, 3-benzyl-6-(4-(trifluoromethoxy)phenyl)-2H-benzo[e][1,3]oxazin-4(3H)-one], the inhibition at 1 µM in series [1] is 48%.
